Experiments:
[1] = test system: Aβ42; assay: Screening for γ-secretase-modulating activity, Method 1: Aβ42 sandwich ELISA in supernatant of SKNBE2 cells carrying APP 695 wild type (Tables 12a, 12b); type: cell-based
Method: (§1) Screening was carried out using SKNBE2 cells carrying the APP 695—wild type, grown in Dulbecco's Modified Eagle's Medium/Nutrient mixture F-12 (DMEM/NUT-mix F-12) (HAM) provided by Gibco (cat no. 31330-38) containing 5% Serum/Fe supplemented with 1% non-essential amino acids. Cells were grown to near confluency.
(§2) The screening was performed using the assay as described in Citron et al (1997) Nature Medicine 3: 67. Briefly, cells were plated in a 96-well plate at about 10^5 cells/ml one day prior to addition of compounds. Compounds were added to the cells in Ultraculture (Lonza, BE12-725F) supplemented with 1% glutamine (Invitrogen, 25030-024) for 18 hours. The media were assayed by two sandwich ELISAs, for Aβ42 and Aβtotal. Toxicity of the compounds was assayed by WST-1 cell proliferation reagent (Roche, 1 644 807) according to the manufacturer's protocol.
To quantify the amount of Aβ42 in the cell supernatant, commercially available Enzyme-Linked-Immunosorbent-Assay (ELISA) kits were used (Innotest® β-Amyloid(1-42), Innogenetics N.V., Ghent, Belgium). The Aβ42 ELISA was performed essentially according to the manufacturer's protocol. Briefly, the standards (dilutions of synthetic Aβ1-42) were prepared in polypropylene Eppendorf with final concentrations of 8000 down to 3.9 pg/ml (1/2 dilution step). Samples, standards and blanks (100 μl) were added to the anti-Aβ42-coated plate supplied with the kit (the capture antibody selectively recognizes the C-terminal end of the antigen). The plate was allowed to incubate 3 h at 25° C. in order to allow formation of the antibody-amyloid complex. Following this incubation and subsequent wash steps a selective anti-Aβ-antibody conjugate (biotinylated 3D6) was added and incubated for a minimum of 1 hour in order to allow formation of the antibody-Amyloid-antibody-complex. After incubation and appropriate wash steps, a Streptavidine-Peroxidase-Conjugate was added, followed 30 minutes later by an addition of 3,3′,5,5′-tetramethylbenzidine (TMB)/peroxide mixture, resulting in the conversion of the substrate into a coloured product. This reaction was stopped by the addition of sulfuric acid (0.9 N) and the colour intensity was measured by means of photometry with an ELISA-reader with a 450 nm filter.
(§3) To obtain the values reported in Table 12a, the sigmoidal dose response curves were analysed by computerised curve-fitting, with percent of inhibition plotted against compound concentration. A 4-parameter equation (model 205) in XLfit was used to determine the IC50. The top and the bottom of the curve were fixed to 100 and 0, respectively, and the hill slope was fixed to 1. The IC50 represents the concentration of a compound that is required for inhibiting a biological effect by 50% (Here, it is the concentration where Aβ peptide level is reduced by 50%).
(§4) To obtain the values reported in Table 12b, the data are calculated as percentage of the maximum amount of amyloid Beta 42 measured in the absence of the test compound. The sigmoidal dose response curves were analyzed using non-linear regression analysis with percentage of the control plotted against the log concentration of the compound. A 4-parameter equation was used to determine the IC50. The values reported in Table 12b are averaged IC50 values.

[2] = test system: Aβtotal; assay: Screening for γ-secretase-modulating activity, Method 1: Aβtotal sandwich ELISA in supernatant of SKNBE2 cells carrying APP 695 wild type (Tables 12a, 12b); type: cell-based
Method: as §1, §2
To quantify the amount of Aβtotal in the cell supernatant, samples and standards were added to a 6E10-coated plate. The plate was allowed to incubate overnight at 4° C. in order to allow formation of the antibody-amyloid complex. Following this incubation and subsequent wash steps a selective anti-Aβ-antibody conjugate (biotinylated 4G8) was added and incubated for a minimum of 1 hour in order to allow formation of the antibody-Amyloid-antibody-complex. After incubation and appropriate wash steps, a Streptavidine-Peroxidase-Conjugate was added, followed 30 minutes later by an addition of Quanta Blu fluorogenic peroxidase substrate according to the manufacturer's instructions (Pierce Corp., Rockford, Ill.).
as §3, §4

[3] = Homo sapiens, Table 12b, Method 1, SKNBE2 cells carrying APP 695 wild type, cell supernatant ELISA, averaged IC50 values, percentage of control vs log concentration
[4] = Homo sapiens, Table 12b, Method 1, SKNBE2 cells carrying APP 695 wild type, cell supernatant ELISA, averaged IC50 values
[5] = Table 12b, Method 1, SKNBE2 cells carrying APP 695 wild type, cell supernatant ELISA, averaged IC50 values, percentage of control vs log concentration
[6] = Table 12b, Method 1, SKNBE2 cells carrying APP 695 wild type, cell supernatant ELISA, averaged IC50 values
[7] = Homo sapiens, Method 1, Table 12a, SKNBE2 cells carrying APP 695 wild type, compounds 18 hours, ELISA, curve top and bottom fixed to 100 and 0, hill slope 1
[8] = Method 1, Table 12a, SKNBE2 cells carrying APP 695 wild type, compounds 18 hours, ELISA, curve top and bottom fixed to 100 and 0, hill slope 1

Structure (SMILES)	IC50 [1, 3] [nM]	IC50 [2, 4] [nM]	IC50 [1, 5] [nM]	IC50 [2, 6] [nM]	IC50 [1, 7] [nM]	IC50 [2, 7] [nM]	IC50 [1, 8] [nM]	IC50 [2, 8] [nM]
COc1cccc(-c2nc3c(Nc4ccc(-n5cnc(C)c5)c(F)c4)cccn3c2C)c1 [Compound 66]	76	–	–	–	–	–	–	–
COc1cc(Nc2cccn3cc(-c4ccc5ncn(C)c5c4)nc23)ccc1-n1cnc(C)c1 [Compound 44]	617	> 3020	–	–	–	–	–	–
COc1cc(Nc2cccn3cc(-c4ccc(F)cc4)nc23)ccc1-n1cc(C)nc1C [Compound 20]	871	5750	–	–	–	–	–	–
COc1cc(Nc2cc(C(F)(F)F)cn3cc(Cc4ccc(F)cc4)nc23)ccc1-n1cnc(C)n1 [Compound 146]	–	–	32	> 3020	–	–	–	–
COc1cc(Nc2cccn3cc(-c4ccccc4F)nc23)ccc1-n1cnc(C)c1 [Compound 88]	174	> 10000	–	–	184	> 3000	–	–
COc1cc(Nc2cccn3cc(-c4ccccc4)nc23)ccc1-n1cnc(C)c1 [Compound 12]	55	> 3020	–	–	64	> 3000	–	–
COc1cc(Nc2cccn3cc(-c4ccc(F)cc4F)nc23)ccc1-n1cnc(C)c1 [Compound 25]	240	> 10000	–	–	251	> 10000	–	–
COc1cc(Nc2cccn3c(-c4ccccc4-c4ccccc4)cnc23)ccc1-n1cnc(C)c1 [Compound 60]	< 110	> 3020	–	–	–	–	–	–
COc1cc(Nc2cccn3cc(C4CC4)nc23)ccc1-n1cnc(C)c1 [Compound 116]	295	> 3020	–	–	–	–	–	–
CCc1cn2cc(C(F)(F)F)cc(Nc3ccc(-n4cnc(C)n4)c(OC)c3)c2n1 [Compound 153]	1900	> 3020	–	–	–	–	–	–
COc1cc(Nc2cc(C(F)(F)F)nn3cc(C)nc23)ccc1-n1cnc(C)c1 [Compound 164]	–	–	178	> 10000	–	–	–	–
COc1cc(Nc2cccn3c(Br)c(-c4ccc(F)cc4)nc23)ccc1-n1cnc(C)c1 [Compound 22]	112	> 3020	–	–	113	> 3000	–	–
COc1cc(Nc2cccn3c(C#N)c(-c4ccc(F)cc4)nc23)ccc1-n1cnc(C)c1 [Compound 58]	< 110	> 3020	–	–	–	–	–	–
COc1cc(Nc2cccn3ccnc23)ccc1-n1cnc(C)c1 [Compound 49]	407	> 10000	–	–	305	10000	–	–
CCCCCCc1cnc2c(Nc3ccc(-n4cnc(C)c4)c(OC)c3)cccn12 [Compound 59]	–	–	145	> 3020	–	–	123	> 3000
COc1cc(Nc2cccn3cc(COC(C)C)nc23)ccc1-n1cnc(C)c1 [Compound 54]	68	> 3020	–	–	70	> 3000	–	–
COc1cccc(-c2nc3c(Nc4ccc(-n5cnc(C)n5)c(OC)c4)cccn3c2C)c1 [Compound 67]	40	> 3020	–	–	51	> 3000	–	–

Structure (SMILES)	IC50 [1, 3] [nM]	IC50 [2, 4] [nM]	IC50 [1, 5] [nM]	IC50 [2, 6] [nM]	IC50 [1, 7] [nM]	IC50 [2, 7] [nM]	IC50 [1, 8] [nM]	IC50 [2, 8] [nM]
COc1cc(Nc2cccn3cc(COc4ccc(F)cc4)nc23)ccc1-n1cnc(C)c1 [Compound 28]	18	> 3020	–	–	20	> 1000	–	–
COc1cc(Nc2cccn3cc(-c4ccccc4C(F)(F)F)nc23)ccc1-n1cnc(C)c1 [Compound 47]	31	> 3020	–	–	31	> 3000	–	–
Cc1ncn(-c2ccc(Nc3cccn4cc(-c5ccccc5C)nc34)nc2)n1 [Compound 82]	–	–	562	> 3020	–	–	–	–
COc1cc(Nc2nc(Br)cn3cc(-c4ccc(F)cc4C)nc23)ccc1-n1cnc(C)n1 [Compound 177]	234	> 3020	–	–	–	–	–	–
CCc1c(-c2ccc(F)cc2)nc2c(Nc3ccc(-n4cnc(C)c4)c(OC)c3)cccn12 [Compound 23]	–	–	22	> 3020	–	–	25	> 3000
COc1cccc(-c2nc3c(Nc4ccc(-n5cnc(C)c5)cc4)cccn3c2C)c1 [Compound 64]	17	> 3020	–	–	13	> 3000	–	–
Cc1ccc(C(F)(F)F)cc1-c1cn2cccc(Nc3ccc(-n4ncnc4C)cc3)c2n1 [Compound 75]	126	> 3020	–	–	–	–	–	–
Cc1cc(F)ccc1-c1cn2cccc(Nc3ccc(-n4ncnc4C)c(F)c3)c2n1 [Compound 131]	245	> 10000	–	–	–	–	–	–
CCCCc1cn2cccc(Nc3ccc(-n4cnc(C)n4)cc3)c2n1 [Compound 76]	–	–	1950	> 10000	–	–	–	–
C=Cc1cn2cc(C(F)(F)F)cc(Nc3ccc(-n4cnc(C)n4)c(OC)c3)c2n1 [Compound 154]	> 3020	> 3020	–	–	–	–	–	–
COc1cc(Nc2cccn3cc(-c4ccc(F)cc4)nc23)ccc1-n1cnc(C)n1 [Compound 6]	263	> 10000	–	–	239	> 10000	–	–
COc1cc(Nc2cccn3c(C(=O)c4ccc(F)cc4)cnc23)ccc1-n1cnc(C)c1 [Compound 62]	417	> 3020	–	–	477	> 10000	–	–
COc1cc(Nc2cccn3cc(-c4ccc(F)cc4)nc23)ccc1-n1ccnc1C [Compound 21]	204	> 5010	–	–	263	> 5000	–	–
COc1cc(Nc2cccn3cc(-c4ccc(C(F)(F)F)cc4)nc23)ccc1-n1cnc(C)c1 [Compound 30]	45	> 3020	–	–	57	> 3000	–	–
COc1cc(Nc2cccn3cc(-c4ccccn4)nc23)ccc1-n1cnc(C)c1 [Compound 41]	363	7410	–	–	344	8540	–	–
COc1cc(Nc2cccn3cc(-c4ccc(Cl)cc4)nc23)ccc1-n1cnc(C)c1 [Compound 17]	71	> 3020	–	–	80	> 3000	–	–

Reference: patent US8546440B2, “Substituted bicyclic imidazole derivatives as gamma secretase modulators” (Janssen Pharmaceuticals, Inc., priority 2008, dated 2013)
